Results as given in article PMC3961306, “Comparison of the Cancer Gene Targeting and Biochemical Selectivities of All Targeted Kinase Inhibitors Approved for Clinical Use” (PLoS ONE, 2014).

Key:
Assay in all cases: Kinase profiling in a biochemical assay panel (mobility shift assays and ELISA), %-inhibition at 1 μM; selectivity entropy
[1] = target: panel of more than 300 wild-type and mutant kinases (313 kinase panel) (Homo sapiens, UniProt Q13464)
[2] = target: T1, panel of more than 300 wild-type and mutant kinases (313 kinase panel) (Homo sapiens, UniProt Q13163)
T1 sequence (Q13163 1-448): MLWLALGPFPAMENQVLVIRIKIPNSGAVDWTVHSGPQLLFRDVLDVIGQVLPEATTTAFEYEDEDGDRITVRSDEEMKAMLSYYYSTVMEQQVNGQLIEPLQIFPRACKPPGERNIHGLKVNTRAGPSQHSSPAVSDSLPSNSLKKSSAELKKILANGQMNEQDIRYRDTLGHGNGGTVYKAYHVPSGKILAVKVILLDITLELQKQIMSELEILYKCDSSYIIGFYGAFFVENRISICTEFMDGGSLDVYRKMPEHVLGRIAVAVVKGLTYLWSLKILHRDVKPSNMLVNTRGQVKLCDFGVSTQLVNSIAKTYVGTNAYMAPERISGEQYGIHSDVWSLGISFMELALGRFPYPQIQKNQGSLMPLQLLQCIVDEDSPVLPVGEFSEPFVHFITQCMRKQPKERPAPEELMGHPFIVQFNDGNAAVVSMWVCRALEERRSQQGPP

[3] = target: panel of more than 300 wild-type and mutant kinases (313 kinase panel) (Homo sapiens, UniProt P43405)
[4] = target: panel of more than 300 wild-type and mutant kinases (313 kinase panel) (Homo sapiens, UniProt P05129)
[5] = target: panel of more than 300 wild-type and mutant kinases (313 kinase panel) (Homo sapiens, UniProt Q8TDX7)
[6] = target: T2, panel of more than 300 wild-type and mutant kinases (313 kinase panel) (Homo sapiens, UniProt Q16566)
T2 sequence (Q16566 1-473): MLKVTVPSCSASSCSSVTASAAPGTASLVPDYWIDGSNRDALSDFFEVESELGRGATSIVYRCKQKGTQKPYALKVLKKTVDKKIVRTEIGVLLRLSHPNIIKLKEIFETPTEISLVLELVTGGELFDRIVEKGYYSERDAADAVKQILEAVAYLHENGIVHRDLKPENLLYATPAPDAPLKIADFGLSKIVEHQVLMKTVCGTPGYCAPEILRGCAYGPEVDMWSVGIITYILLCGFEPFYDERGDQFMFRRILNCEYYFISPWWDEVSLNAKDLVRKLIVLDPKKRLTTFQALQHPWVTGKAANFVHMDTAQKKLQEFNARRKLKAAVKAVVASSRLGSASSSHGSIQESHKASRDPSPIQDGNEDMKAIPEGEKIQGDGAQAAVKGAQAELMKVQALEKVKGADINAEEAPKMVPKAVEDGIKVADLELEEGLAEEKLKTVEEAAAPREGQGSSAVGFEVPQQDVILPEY

[7] = target: panel of more than 300 wild-type and mutant kinases (313 kinase panel) (Homo sapiens, UniProt Q07912)
Chain of panel of more than 300 wild-type and mutant kinases (313 kinase panel) (Homo sapiens, UniProt Q07912) (Q07912 whole entry, change not shown): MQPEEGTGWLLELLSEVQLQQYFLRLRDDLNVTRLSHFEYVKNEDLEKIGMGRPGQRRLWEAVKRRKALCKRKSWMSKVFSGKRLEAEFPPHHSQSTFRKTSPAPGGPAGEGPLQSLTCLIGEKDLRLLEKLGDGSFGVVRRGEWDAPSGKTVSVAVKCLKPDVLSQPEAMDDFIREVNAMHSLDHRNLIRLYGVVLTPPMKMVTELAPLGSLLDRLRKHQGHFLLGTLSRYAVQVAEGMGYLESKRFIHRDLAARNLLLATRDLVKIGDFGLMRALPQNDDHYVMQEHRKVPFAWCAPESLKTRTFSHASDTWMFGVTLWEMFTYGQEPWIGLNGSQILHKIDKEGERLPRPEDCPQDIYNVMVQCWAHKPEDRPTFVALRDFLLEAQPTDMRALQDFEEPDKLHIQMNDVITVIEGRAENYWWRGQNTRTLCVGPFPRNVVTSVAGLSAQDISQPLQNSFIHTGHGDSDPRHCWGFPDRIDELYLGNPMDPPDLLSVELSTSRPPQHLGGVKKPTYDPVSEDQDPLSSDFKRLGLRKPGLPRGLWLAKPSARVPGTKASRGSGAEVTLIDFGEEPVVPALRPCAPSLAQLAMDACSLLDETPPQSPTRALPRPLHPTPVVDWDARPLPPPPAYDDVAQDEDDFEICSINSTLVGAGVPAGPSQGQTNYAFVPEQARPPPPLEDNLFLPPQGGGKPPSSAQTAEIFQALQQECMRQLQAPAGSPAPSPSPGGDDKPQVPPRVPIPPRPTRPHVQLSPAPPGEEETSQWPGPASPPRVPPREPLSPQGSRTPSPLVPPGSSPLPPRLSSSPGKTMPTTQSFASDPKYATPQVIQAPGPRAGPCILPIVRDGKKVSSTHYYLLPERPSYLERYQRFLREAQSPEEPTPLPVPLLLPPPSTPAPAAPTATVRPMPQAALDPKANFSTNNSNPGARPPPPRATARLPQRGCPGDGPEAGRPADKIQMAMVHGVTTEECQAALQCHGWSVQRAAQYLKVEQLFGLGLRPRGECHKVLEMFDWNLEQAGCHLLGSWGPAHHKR

[8] = target: T3, panel of more than 300 wild-type and mutant kinases (313 kinase panel) (Homo sapiens, UniProt P54762)
T3 sequence (P54762 18-984): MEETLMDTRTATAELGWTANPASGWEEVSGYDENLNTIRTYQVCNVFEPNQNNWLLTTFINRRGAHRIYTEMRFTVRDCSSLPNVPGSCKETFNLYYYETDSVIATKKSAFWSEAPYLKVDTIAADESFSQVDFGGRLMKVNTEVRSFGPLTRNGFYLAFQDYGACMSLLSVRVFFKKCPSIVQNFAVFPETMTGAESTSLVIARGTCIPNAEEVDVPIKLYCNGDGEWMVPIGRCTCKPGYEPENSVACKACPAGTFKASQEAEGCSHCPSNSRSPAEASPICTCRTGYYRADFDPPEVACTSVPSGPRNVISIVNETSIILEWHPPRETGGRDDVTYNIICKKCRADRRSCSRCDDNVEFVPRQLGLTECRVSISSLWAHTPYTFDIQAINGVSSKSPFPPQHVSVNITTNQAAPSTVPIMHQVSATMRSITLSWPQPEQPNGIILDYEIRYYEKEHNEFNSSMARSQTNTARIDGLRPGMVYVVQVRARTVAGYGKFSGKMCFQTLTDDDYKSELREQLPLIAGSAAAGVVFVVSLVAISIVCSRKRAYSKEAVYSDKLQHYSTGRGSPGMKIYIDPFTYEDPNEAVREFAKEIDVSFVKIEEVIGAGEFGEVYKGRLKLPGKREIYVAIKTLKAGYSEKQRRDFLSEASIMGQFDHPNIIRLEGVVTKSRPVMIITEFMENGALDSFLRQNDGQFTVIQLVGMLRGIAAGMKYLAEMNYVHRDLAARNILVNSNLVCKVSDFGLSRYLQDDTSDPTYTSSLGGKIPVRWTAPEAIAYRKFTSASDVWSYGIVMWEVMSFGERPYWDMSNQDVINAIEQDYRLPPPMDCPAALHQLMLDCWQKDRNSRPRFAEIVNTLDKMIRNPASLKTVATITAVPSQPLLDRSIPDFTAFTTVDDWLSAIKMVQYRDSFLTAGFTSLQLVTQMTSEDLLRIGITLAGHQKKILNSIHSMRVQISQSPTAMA

[9] = target: panel of more than 300 wild-type and mutant kinases (313 kinase panel) (Homo sapiens, UniProt P27361)
Chain of panel of more than 300 wild-type and mutant kinases (313 kinase panel) (Homo sapiens, UniProt P27361) (P27361 whole entry, change not shown): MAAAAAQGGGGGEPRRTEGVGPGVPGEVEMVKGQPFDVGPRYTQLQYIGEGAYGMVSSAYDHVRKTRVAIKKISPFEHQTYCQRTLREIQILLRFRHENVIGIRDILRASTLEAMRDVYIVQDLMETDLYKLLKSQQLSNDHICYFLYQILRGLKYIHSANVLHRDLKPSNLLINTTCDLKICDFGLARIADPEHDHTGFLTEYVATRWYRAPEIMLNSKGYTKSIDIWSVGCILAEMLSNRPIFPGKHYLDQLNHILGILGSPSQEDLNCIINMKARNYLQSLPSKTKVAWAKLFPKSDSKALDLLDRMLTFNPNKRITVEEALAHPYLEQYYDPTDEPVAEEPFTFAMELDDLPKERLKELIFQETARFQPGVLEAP

[10] = target: panel of more than 300 wild-type and mutant kinases (313 kinase panel) (Homo sapiens, UniProt Q13555)
[11] = kinase MAP2K5, compound at 1 μM

| SMILES | %-inhibition of ROCK1 ([1]; kinase ROCK1, 1 μM) | %-inhibition of MAP2K5 [2, 11] | %-inhibition of SYK ([3]; kinase SYK, 1 μM) | %-inhibition of PKCγ ([4]; kinase PKCγ, 1 μM) | %-inhibition of NEK7 ([5]; kinase NEK7, 1 μM) | %-inhibition, CaMK4 ([6]; kinase CaMK4, 1 μM compound) | %-inhibition, ACK ([7]; kinase ACK, 1 μM compound) | %-inhibition of EPHB1 ([8]; kinase EPHB1, compound at 1 μM) | %-inhibition of Erk1 ([9]; kinase Erk1, compound at 1 μM) | %-inhibition, CaMK2γ ([10]; kinase CaMK2γ, 1 μM compound) | %-inhibition of Erk1 ([9]; 1 µM) | %-inhibition, CaMK2γ ([10]; 1 µM) | %-inhibition of ROCK1 ([1]; 1 µM) | %-inhibition of EPHB1 ([8]; 1 µM) | %-inhibition of MAP2K5 ([2]; 1 µM) | %-inhibition of SYK ([3]; 1 µM) | %-inhibition of PKCγ ([4]; 1 µM) | %-inhibition of NEK7 ([5]; 1 µM) | %-inhibition, CaMK4 ([6]; 1 µM) | %-inhibition, ACK ([7]; 1 µM) |
| --- | --- | --- | --- | --- | --- | --- | --- | --- | --- | --- | --- | --- | --- | --- | --- | --- | --- | --- | --- | --- |
| Cc1ccc(C(=O)Nc2ccc(CN3CCN(C)CC3)c(C(F)(F)F)c2)cc1C#Cc1cnc2cccnn12 [ponatinib] | 39% | 61% | 10% | -3% | -10% | -1.51% | 99% | – | – | – | – | – | – | – | – | – | – | – | – | – |
| CC(C)(C)c1nc(-c2cccc(NS(=O)(=O)c3c(F)cccc3F)c2F)c(-c2ccnc(N)n2)s1 [dabrafenib] | – | 70% | 37% | -0.381% | 2.28% | 78% | 24% | 12% | -1.62% | -5.47% | – | – | – | – | – | – | – | – | – | – |
| COc1cc(Nc2c(C#N)cnc3cc(OCCCN4CCN(C)CC4)c(OC)cc23)c(Cl)cc1Cl [bosutinib] | 1.43% | 63% | 100% | 12% | – | – | 97% | – | – | – | 1.12% | 8% | – | – | – | – | – | – | – | – |
| Cc1nc(Nc2ncc(C(=O)Nc3c(C)cccc3Cl)s2)cc(N2CCN(CCO)CC2)n1 [dasatinib] | – | – | 69% | – | – | – | – | – | – | -3.57% | – | – | – | – | – | – | – | – | – | – |
| CO[C@H]1C[C@@H]2CC[C@@H](C)[C@@](O)(O2)C(=O)C(=O)N2CCCC[C@H]2C(=O)O[C@H]([C@H](C)C[C@@H]2CC[C@@H](OC(=O)C(C)(CO)CO)[C@H](OC)C2)CC(=O)[C@H](C)/C=C(\C)[C@@H](O)[C@@H](OC)C(=O)[C@H](C)C[C@H](C)/C=C/C=C/C=C/1C [temsirolimus] | -0.679% | -1.51% | -13% | -11% | -8% | -9% | -8% | -1.86% | 0.373% | -14% | – | – | – | – | – | – | – | – | – | – |
| C#Cc1cccc(Nc2ncnc3cc(OCCOC)c(OCCOC)cc23)c1 [erlotinib] | – | – | – | – | – | – | – | – | – | – | 0.357% | 3% | 1.9% | 22% | 92% | 17% | 8% | 0.893% | 2% | 37% |
| CCCS(=O)(=O)Nc1ccc(F)c(C(=O)c2c[nH]c3ncc(-c4ccc(Cl)cc4)cc23)c1F [vemurafenib] | 1.28% | 32% | -3.77% | -4.39% | -3.56% | -2.38% | 40% | -1.63% | 0.0533% | -10% | – | – | – | – | – | – | – | – | – | – |
